Target: T1, mPTPB (Mycobacterium tuberculosis protein tyrosine phosphatase B) (Mycobacterium tuberculosis, UniProt I6WXK4)
T1 construct: gene ptpB
Test: biochemical
Parameters: mPTPB phosphatase inhibition, pNPP substrate, absorbance at 405 nm
Settings: read-out: 50 uM inhibition rate (%)

T1 sequence (I6WXK4 whole entry, looked up): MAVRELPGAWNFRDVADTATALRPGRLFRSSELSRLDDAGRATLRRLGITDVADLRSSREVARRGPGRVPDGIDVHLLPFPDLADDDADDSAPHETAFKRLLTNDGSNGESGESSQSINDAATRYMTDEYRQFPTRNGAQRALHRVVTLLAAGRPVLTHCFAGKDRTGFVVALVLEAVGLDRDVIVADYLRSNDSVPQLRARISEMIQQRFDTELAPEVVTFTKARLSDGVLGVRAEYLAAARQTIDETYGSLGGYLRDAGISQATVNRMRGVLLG

| Structure (SMILES) | inhibition at 50 µM [%] |
| --- | --- |
| CC(C)[C@H]1CC[C@@]2(C)CC[C@]3(CO)CC4=C(C(=O)O)CC[C@H]4[C@]4(C)C[C@@H]4[C@H]3[C@H]12 [asperterpenoid A] | 98.2 |
| CC(C)C1CCC2(C)CCC3(C)CC4=C(C(=O)O)CCC4C4(C)CC4C3C12 (stereo not shown) [compound 1, asperterpenoid D] | 52.8 |
| CC(C)[C@H]1CC[C@@]2(C)CC[C@]3(C(=O)O)CC4=C(C(=O)O)CC[C@H]4[C@]4(C)C[C@@H]4[C@H]3[C@H]12 [asperterpenoid B] | 98.9 |
| CC1=C2C[C@@]3(C)CC[C@]4(C)CC[C@H](C(C)C)[C@H]4[C@@H]3[C@H]3C[C@@]3(C)[C@@H]2CC1 [preasperterpenoid A] | 31.1 |
| CC(C)[C@H]1C[C@@H](O)[C@@]2(C)CC[C@]3(CO)CC4=C(C(=O)O)CC[C@H]4[C@]4(C)C[C@@H]4[C@H]3[C@H]12 [asperterpenoid C] | 45.1 |
| CC(C)C1CCC2(C)CCC3(C)CC4=C(CO)CCC4C4(C)CC4C3C12 (stereo not shown) [compound 2, asperterpenoid E] | 46.8 |
| CC(C)C1CCC2(C)CCC3(CO)CC4=C(CO)CCC4C4(C)CC4C3C12 (stereo not shown) [compound 3, asperterpenoid F] | 48 |

Source: article PMC8717867, “The Oxidation Cascade of a Rare Multifunctional P450 Enzyme Involved in Asperterpenoid A Biosynthesis” (Frontiers in Chemistry, 2021)
